Each structure is given as a SMILES string.

This data set can be described thus: Moisture uptake (adsorption/desorption vs relative humidity). In kind it is physicochemical. The settings on record: for Desorption (90-0% RH): moisture loss; for Adsorption (40-90% RH): moisture uptake. An excerpt:
The thermal properties, crystalline nature, apparent purity and moisture uptake of a 6.0 g batch of the free acid of compound (1) are summarized in Table 1.
Two broad endothermic peaks of the potassium salt of compound (1) were seen by DSC that can be associated with a dehydration event and melt/decomposition, respectively (Table 2).

As to `O=C(O)c1cnn(-c2nc3cc(Cl)c(Cl)cc3[nH]2)c1` [free acid of compound (1), 1-(5,6-Dichloro-1H-benzoimidazol-2-yl)-1H-pyrazole-4-carboxylic acid], the “Desorption (90-0% RH)” value is −0.96% and the “Adsorption (40-90% RH)” value is on record as “+0.59%”.
`O=C([O-])c1cnn(-c2nc3cc(Cl)c(Cl)cc3[nH]2)c1.[K+]` [potassium salt of compound (1), potassium salt of 1-(5,6-dichloro-1H-benzoimidazol-2-yl)-1H-pyrazole-4-carboxylic acid]: the “Desorption (90-0% RH)” value is on record as −0.89% and the “Adsorption (40-90% RH)” value is recorded as “+0.53%”. The Hygroscopicity result (salt prepared by re-slurry methodology) is given as “non-hygroscopic”.

The values are drawn from US10807969B2, “Meglumine salt formulations of 1-(5,6-dichloro-1h-benzo[d]imidazol-2-yl)-1h-pyrazole-4-carboxylic acid” (Janssen Pharmaceutica NV, priority 2011, dated 2020).
